# Measured values published in patent US10155021B2, “Antimicrobial 4-oxoquinolizines” (Emergent Product Development Gaithersburg Inc., priority 2011, dated 2018).
# Read-outs that look alike come from different tables or passages of the source.
# Key:
# A. baumannii A489 [1] = assay: Preliminary MBC without and with sub-inhibitory polymyxin B (Example 4); format: cell-based, Acinetobacter baumannii; details: Acinetobacter baumannii, A489, A. baumannii A489, without polymyxin B, read-out: MBC without PB
# A. baumannii A472 [2] = assay: MIC determination for Acinetobacter strains (Example 3); format: cell-based; details: LEV R, CIP R, MRP I, IMP I, AMK R, TET R
# [3] = tested on: resistant strains of A. baumannii and one strain of Acinetobacter sp.; assay: MIC without and with sub-inhibitory polymyxin B, whole panel / MIC ranges (Example 4; also strains not listed separately); format: cell-based; details: for MIC: Acinetobacter baumannii
# A. baumannii A472 [4] = assay: MIC without and with sub-inhibitory polymyxin B (Example 4); format: cell-based, Acinetobacter baumannii; details: for MIC: Acinetobacter baumannii, A472, A. baumannii A472, without polymyxin B, read-out: MIC without PB
# A. baumannii A473 = assay: Preliminary MBC without and with sub-inhibitory polymyxin B (Example 4); format: cell-based, Acinetobacter baumannii; details: Acinetobacter baumannii, A473, A. baumannii A473, without polymyxin B, read-out: MBC without PB
# A. baumannii A489 [5] = assay: MIC without and with sub-inhibitory polymyxin B (Example 4); format: cell-based, Acinetobacter baumannii; details: Acinetobacter baumannii, A489, A. baumannii A489, without polymyxin B, read-out: MIC without PB
# A. baumannii A390 = assay: Preliminary MBC without and with sub-inhibitory polymyxin B (Example 4); format: cell-based, Acinetobacter baumannii; details: Acinetobacter baumannii, A390, A. baumannii A390, without polymyxin B, preliminary MBC, read-out: MBC without PB
# A. baumannii ATCC 19606 = assay: MIC without and with sub-inhibitory polymyxin B (Example 4); format: cell-based, Acinetobacter baumannii; details: Acinetobacter baumannii
# A. baumannii A401 = assay: Preliminary MBC without and with sub-inhibitory polymyxin B (Example 4); format: cell-based, Acinetobacter baumannii; details: Acinetobacter baumannii, A401, A baumannii A 401, without polymyxin B, preliminary MBC, read-out: MBC without PB
# A. baumannii A472 [6] = assay: as above; format: cell-based, Acinetobacter baumannii; details: Acinetobacter baumannii, A472, A. baumannii A472, without polymyxin B, read-out: MBC without PB
# [7] = tested on: Acinetobacter sp. (H064200250); assay: MIC without and with sub-inhibitory polymyxin B (Example 4); format: cell-based; details: Acinetobacter, without polymyxin B
# A. baumannii J2 [8] = assay: as above; format: cell-based, Acinetobacter baumannii; details: Acinetobacter baumannii, J2, A. baumannii J2, without polymyxin B, read-out: MIC without PB
# [9] = tested on: Acinetobacter sp. (H064200250); assay: Preliminary MBC without and with sub-inhibitory polymyxin B (Example 4); format: cell-based; details: Acinetobacter, without polymyxin B, preliminary MBC, read-out: MBC without PB
# Procedure, shortened: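 Incubation 18-20 h, 37° C. MBC = lowest conc. with ~90% fewer colonies than positive control (single/no colonies).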
# A. baumannii A 401 = assay: MIC determination for Acinetobacter strains (Example 3); format: cell-based; details: A401, LEV R, CIP R, AMK R, TET R
# A. baumannii A329 [10] = assay: Preliminary MBC without and with sub-inhibitory polymyxin B (Example 4); format: cell-based, Acinetobacter baumannii; details: Acinetobacter baumannii, A329, A. baumannii A329, without polymyxin B, read-out: MBC without PB
# A. baumannii J2 [11] = assay: as above; format: cell-based, Acinetobacter baumannii; details: Acinetobacter baumannii, J2, A. baumannii J2, without polymyxin B, preliminary MBC, read-out: MBC without PB
# A. baumannii A329 [12] = assay: MIC without and with sub-inhibitory polymyxin B (Example 4); format: cell-based, Acinetobacter baumannii; details: Acinetobacter baumannii, A329, A. baumannii A329, without polymyxin B, read-out: MIC without PB
# [13] = tested on: Acinetobacter spp. H064200250; assay: MIC determination for Acinetobacter strains (Example 3); format: cell-based, Acinetobacter sp.; details: LEV R, CIP R, MRP R, IMP I
# A. baumannii A329 [14] = assay: as above; format: cell-based; details: LEV R, CIP R, MRP R, IMP R, AMK R, TET R
# E. coli 2906 = assay: MIC, panel of quinolone-resistant strains (CLSI); format: cell-based; details: Escherichia coli, CIP R
# E. coli CTX-M-15 = assay: MIC, panel of quinolone-resistant strains (CLSI); format: cell-based; details: Escherichia coli, CTXM15; CIP R, ESBL
# P. aeruginosa 1388-3-02 = assay: MIC, panel of quinolone-resistant strains (CLSI); format: cell-based; details: Pseudomonas aeruginosa, 1388302; CIP R, POL R
# Pseudomonas ssp PER-1 = assay: MIC, panel of quinolone-resistant strains (CLSI); format: cell-based, Pseudomonas spp; details: PER1, CIP R, ESBL
# Klebsiella ssp KPC-3 = assay: MIC, panel of quinolone-resistant strains (CLSI); format: cell-based, Klebsiella spp; details: KPC3, CIP R, ESBL
# P. aeruginosa 143-3-03 = assay: MIC, panel of quinolone-resistant strains (CLSI); format: cell-based; details: Pseudomonas aeruginosa, 143303; CIP I, POL R
# [15] = read-out: MIC range without PB 01-10-2008 n = 8, without polymyxin B, 1st experiment, 8 strains
# [16] = without polymyxin B, 2nd experiment, 11 strains, read-out: MIC range without PB 14-10-2008 n = 11
# [17] = ATCC19606, A. baumannii ATCC 19606, without polymyxin B, 1st experiment, read-out: MIC without PB
# [18] = ATCC19606, A. baumannii ATCC 19606, without polymyxin B, 2nd experiment, visual reading, read-out: MIC without PB
# [19] = Acinetobacter spp. H064200250 (OXA51), 2nd experiment, visual reading, read-out: MIC without PB
# [20] = Acinetobacter spp. H064200250, 1st experiment, read-out: MIC without PB
# [21] = Acinetobacter spp. H064200250 (OXA51), 2nd experiment
# [22] = Acinetobacter spp. H064200250, 1st experiment
# [23] = A. baumannii A14, without polymyxin B, 1st experiment, read-out: MIC without PB
SMILES,MBC (A. baumannii A489 [1]; 1st experiment) [µg/mL],MIC (A. baumannii A472 [2]) [µg/mL],"MIC [3, 15] [µg/mL]","MIC [3, 16] [µg/mL]",MIC (A. baumannii A472 [4]; 1st experiment) [µg/mL],"MIC (A. baumannii A472 [4]; 2nd experiment, visual reading) [µg/mL]",MBC (A. baumannii A473; 1st experiment) [µg/mL],MBC (A. baumannii A473; 2nd experiment) [µg/mL],MIC (A. baumannii A489 [5]; 1st experiment) [µg/mL],"MIC (A. baumannii A489 [5]; 2nd experiment, visual reading) [µg/mL]",MBC (A. baumannii A390; 1st experiment) [µg/mL],MIC (A. baumannii ATCC 19606; [17]) [µg/mL],MIC (A. baumannii ATCC 19606; [18]) [µg/mL],"MIC [7, 19] [µg/mL]","MIC [7, 20] [µg/mL]","MIC (A. baumannii J2 [8]; 2nd experiment, visual reading) [µg/mL]","MBC [9, 21] [µg/mL]","MBC [9, 22] [µg/mL]",MBC (A. baumannii J2 [11]; 2nd experiment) [µg/mL],MIC [13] [µg/mL],further results
"Cc1c(-c2ccc(N)c(F)c2)ccn2c(=O)c(C(=O)O)cc(C3CC3)c12 [Compound 1, 8-(3-fluoro-4-amino-phenyl)-1-cyclopropyl-9-methyl-4-oxo-quinolizine-3-carboxylic acid]",8,8,1 to 32,4 to 32,8,8,4,8,4,16,16,0.25,0.25,16,8,16,32,8,16,8,"MBC (A. baumannii A489 [1]; 2nd experiment): 16 µg/mL; MBC (A. baumannii A390; 2nd experiment): 16 µg/mL; MBC (A. baumannii A401; 2nd experiment): 8 µg/mL; MBC (A. baumannii A401; 1st experiment): 16 µg/mL; MBC (A. baumannii A472 [6]; 1st experiment): 8 µg/mL; MIC (A. baumannii J2 [8]; 1st experiment): 8 µg/mL; MIC (A. baumannii A 401): 4 µg/mL; MBC (A. baumannii A329 [10]; 1st experiment): 16 µg/mL; MBC (A. baumannii J2 [11]; 1st experiment): 8 µg/mL; MIC (A. baumannii A329 [12]; 1st experiment): 16 µg/mL; MIC (A. baumannii A329 [12]; 2nd experiment, visual reading): 16 µg/mL; MIC (A. baumannii A329 [14]): 16 µg/mL"
"Cc1c(-c2ccc(N)cc2)c(F)cn2c(=O)c(C(=O)O)cc(C3CC3)c12 [Compound 7, 8-(4-amino-phenyl)-1-cyclopropyl-7-fluoro-9-methyl-4-oxo-quinolizine-3-carboxylic acid]",4,4,2 to 32,2 to 16,4,8,4,4,8,8,4,,0.25,16,8,4,8,4,4,8,"MIC [3, 23]: 32 µg/mL; MIC ratio without/with polymyxin B (A. baumannii A472 [4]; A. baumannii A472, ratio MIC without PB to MIC + PB, PB […], 2nd experiment): ≥ 256 µg/mL; MIC (E. coli 2906): 32 µg/mL; MIC (E. coli CTX-M-15): 32 µg/mL; MBC (A. baumannii A401; 2nd experiment): 8 µg/mL; MBC (A. baumannii A401; 1st experiment): 4 µg/mL; MIC (P. aeruginosa 1388-3-02): 16 µg/mL; MIC (Pseudomonas ssp PER-1): 16 µg/mL; MIC (Klebsiella ssp KPC-3): 16 µg/mL; MBC (A. baumannii A472 [6]; 1st experiment): 4 µg/mL; MBC (A. baumannii A472 [6]; 2nd experiment): 8 µg/mL; MIC ([7]; Acinetobacter spp. H064200250 (OXA51), 2nd experiment, MIC read with alamar blue, read-out: MIC without PB, read with alamar blue): 8 µg/mL; MIC (A. baumannii A 401): 4 µg/mL; MIC (P. aeruginosa 143-3-03): 4 µg/mL"
"C[C@H]1COc2c(N3CCN(C)CC3)c(F)cc3c(=O)c(C(=O)O)cn1c23 [Levofloxacin, reference compound]",32,,8 to 32,4 to 32,,,,,,32,,1,1,16,16,32,16,16,32,16,"fold greater activity (fold lower MIC) in presence of polymyxin B compared to without polymyxin B [3]: not significantly affected; MIC [3, 23]: 32 µg/mL; MIC ([3]; A. baumannii A14, without polymyxin B, 2nd experiment, visual reading, read-out: MIC without PB): 32 µg/mL; MIC ([3]; NCTC13301, A. baumannii NCTC 13301, without polymyxin B, 1st experiment, read-out: MIC without PB): 32 µg/mL; MIC ([3]; NCTC13301, A. baumannii NCTC 13301, without polymyxin B, 2nd experiment, visual reading, read-out: MIC without PB): 32 µg/mL; MIC (E. coli 2906): 32 µg/mL; MIC (A. baumannii ATCC 19606; ATCC19606, read-out: MIC +0.06 μg/ml PB, read with alamar blue, A. baumannii ATCC 19606, +0.06 μg/ml polymyxin B, 2nd experiment, MIC read with alamar blue): 0.5 µg/mL; MIC (E. coli CTX-M-15): 16 µg/mL; MIC (P. aeruginosa 1388-3-02): 32 µg/mL; MIC (Pseudomonas ssp PER-1): 32 µg/mL; MIC (Klebsiella ssp KPC-3): > 128 µg/mL; MIC (A. baumannii J2 [8]; 1st experiment): 32 µg/mL; MBC (A. baumannii A329 [10]; 1st experiment): 32 µg/mL; MBC (A. baumannii A329 [10]; 2nd experiment): 32 µg/mL; MBC (A. baumannii J2 [11]; 1st experiment): 32 µg/mL; MIC (A. baumannii A329 [12]; 1st experiment): 32 µg/mL; MIC (P. aeruginosa 143-3-03): 8 µg/mL; MIC (A. baumannii A329 [14]): 32 µg/mL"
